In patent US20030078237A1, “Phenanthryl piperazinyl dicarboxylic acids as selective nmda receptor modulating agents” (priority 1999, published 2003):
Read-outs that look alike come from different tables or passages of the source.

Legend:
[1] = target: Native NMDA receptor, Midline thalamus (NR2B/NR2D); test: quantitative receptor autoradiography of [3H]-glutamate labeled native NMDA receptors, midline thalamus; assay type: binding; conditions: [3H]-glutamate autoradiography, rat brain sections; read-out: Ki, native NMDA receptor potency, Midline thalamus (NR2B/NR2D)
Method: (§1) PPDA (50 μM) also had no effect on depolarizations following administration of (1S,3R)-1-amino-1,3-cyclopentane dicarboxylic acid (ACPD; 30 μM). APCD is a Group I metabotropic glutamate (mGlu) receptor agonist. The recited values were determined by using quantitative receptor autoradiography of [^3H]-glutamate labeled NMDA receptors in rat brain tissue sections.
(§2) The potency of PPDA for native NMDA receptors was also investigated in a Xenopus oocyte system.

[2] = target: T1, Native NMDA receptor, Cerebellum (NR2C) (Rattus norvegicus, UniProt Q00961); test: quantitative receptor autoradiography of [3H]-glutamate labeled native NMDA receptors, cerebellum NR2C; assay type: binding
T1 construct: Native NMDA Receptor Potency; from tissue; host or cells: rat brain sections, cerebellum
Method: as §1, §2

[3] = system: Group I metabotropic glutamate (mGlu) receptor; test: ACPD-induced depolarizations on neonatal rat motoneurones; assay type: cell-based; conditions: PPDA 50 μM; ACPD 30 μM
Method: (§3) Hemisected neonatal rat spinal cords (Evans and Watkins, European Journal of Pharmacology, 50: 123-129, 1978) were isolated and wire electrodes were placed under the exposed ventral roots. The preparation was superfused with standard Ringers (containing in mM: NaCl 118, NaHCO3 25, KCl 3, CaCl2 2.5, D-glucose 12 and gassed with 95% O2/5% CO2). To record agonist-induced responses, 0.1 μM tetrodotoxin was included to block synaptic transmission and associated depolarizations. Agonist (N-methyl-D-aspartate (NMDA)) was superfused for 60-120 seconds at a rate of 1 ml/minute. The relative positive potentials recorded by the distal (to spinal cord) wire electrode compared to the proximal electrode was taken as an indication of motor neuron cell body depolarization. Antagonism of agonist-induced responses was observed by co-application of the antagonist PPDA.
as §1

[4] = system: kainate subtype of glutamate receptors; test: kainate-induced depolarizations on neonatal rat motoneurones; assay type: cell-based; conditions: PPDA 5 μM, kainate 50 μM
Method: as §3
(§4) AMPA and kainate are protypical agonists which show selectivity for, and predominantly activate, the AMPA and kainate subtypes of glutamate receptors. In additional assays, PPDA was tested at a concentration of 5 μM (which is approximately 20 times the Kd value for the antagonism of NMDA receptors) as an antagonist of AMPA (6 μM)-, kainate (50 μM)- and NMDA (50 μM)-induced depolarizations (approximate EC50 concentrations used) on neonatal rat motoneurones.

NR1/NR2B [5] = target: T2, NR1/NR2B (Rattus norvegicus, UniProt P35439+Q00960); test: two-microelectrode voltage clamp of recombinant NMDA receptors in Xenopus oocytes, NR1/NR2B; assay type: cell-based
T2 construct: expressed in transfected cells; host or cells: Xenopus oocytes injected with in vitro transcribed RNA
Method: (§5) RNA translation and transcription in Xenopus oocytes and electrophysiological recordings were performed as previously described (Monaghan D T, Larson H (1997) J Pharmacol Exp Ther 280:614 -620). Plasmids were linearized with NotI (NR1a), EcoRI (NR2A, NR2C, and NR2D), or SalI (NR2B) and transcribed in vitro using the mMessage mMachine RNA polymerase transcription kit (Ambion, Austin, Tex.). NR1 a was mixed 1:3 with NR2A, NR2B, NR2C, or NR2D RNA, and 2-50 ng of this mixture was injected into oocytes. Agonist-evoked responses were measured using a standard two-microelectrode voltage clamp (model OC-725B Oocyte Clamp; Warner Instruments, Hamden, Conn.) at a holding potential of −60 mV. Glutamate (10 μM) and glycine (10 μM) were applied until stable plateau responses were obtained; (±)-cis-1-(phenanthren-2-yl-carbonyl)-piperazine-2,3-dicarboxylic acid (PPDA) (0.1, 0.3, 1, 3, 10, or 30 μM) was then applied until steady-state blockade was obtained, followed by antagonist washout and full agonist responses. Current responses were captured and analyzed with AxoData (Axon Instruments, Foster City, Calif.) and GraphPad Prism (ISI Software, San Diego, Calif.) software. Ki values were corrected for agonist affinity according to the Cheng-Prusoff equation. Data in Table 3 are expressed as mean Kl±SEM. […]

native AMPA receptors = test: autoradiography, [3H]CNQX binding to native AMPA receptors; conditions: PPDA 10 μM; 100 nM [3H]CNQX; n=3
NMDA receptors = test: NMDA-induced depolarizations of motoneurones, hemisected neonatal rat spinal cord; assay type: cell-based
Method: as §3, §4

NR1/NR2C [6] = target: T3, NR1/NR2C (Rattus norvegicus, UniProt P35439+Q00961); test: two-microelectrode voltage clamp of recombinant NMDA receptors in Xenopus oocytes, NR1/NR2C; assay type: cell-based
T3 construct: expressed in transfected cells; host or cells: Xenopus oocytes injected with in vitro transcribed RNA
Method: as §5

[7] = target: T4, Native NMDA receptor, Medial Striatum (NR2B) (Rattus norvegicus, UniProt Q00960); test: quantitative receptor autoradiography of [3H]-glutamate labeled native NMDA receptors, medial striatum; assay type: binding
T4 construct: Native NMDA Receptor Potency; from tissue; host or cells: rat brain sections, medial striatum
Method: as §1, §2

NR1/NR2D [8] = target: T5, NR1/NR2D (Rattus norvegicus, UniProt P35439+Q62645); test: two-microelectrode voltage clamp of recombinant NMDA receptors in Xenopus oocytes, NR1/NR2D; assay type: cell-based
T5 construct: expressed in transfected cells; host or cells: Xenopus oocytes injected with in vitro transcribed RNA
Method: as §5

[9] = target: T6, Native NMDA receptor, Cerebellum (NR2A) (Rattus norvegicus, UniProt Q00959); test: quantitative receptor autoradiography of [3H]-glutamate labeled native NMDA receptors, cerebellum NR2A; assay type: binding
T6 construct: Native NMDA Receptor Potency; from tissue; host or cells: rat brain sections, cerebellum
Method: as §1, §2

[10] = system: AMPA subtype of glutamate receptors; test: AMPA-induced depolarizations on neonatal rat motoneurones; assay type: cell-based; conditions: PPDA 5 μM, AMPA 6 μM
Method: as §3, §4

[11] = system: native non-NMDA glutamate receptors ([3H]kainate binding); test: autoradiography, [3H]kainate binding; conditions: PPDA 10 μM; 25 nM [3H]kainate; n=3
NR1/NR2D [12] = target: T7, NR1/NR2D (Rattus norvegicus, UniProt Q62645); conditions: recombinant, Xenopus oocytes; from Buller and Monaghan 1997, mean +/- SEM, n=4-6; cited from earlier work
T7 construct: expressed in transfected cells; host or cells: Xenopus oocytes injected with in vitro transcribed RNA

NR1/NR2A [13] = target: T8, NR1/NR2A (Rattus norvegicus, UniProt Q00959); conditions: recombinant, Xenopus oocytes; from Buller and Monaghan 1997, mean +/- SEM, n=4-6; cited from earlier work
T8 construct: expressed in transfected cells; host or cells: Xenopus oocytes injected with in vitro transcribed RNA

NR1/NR2C [14] = target: T9, NR1/NR2C (Rattus norvegicus, UniProt Q00961); conditions: recombinant, Xenopus oocytes; from Buller and Monaghan 1997, mean +/- SEM, n=4-6; cited from earlier work
T9 construct: expressed in transfected cells; host or cells: Xenopus oocytes injected with in vitro transcribed RNA

NR1/NR2B [15] = target: T10, NR1/NR2B (Rattus norvegicus, UniProt Q00960); conditions: recombinant, Xenopus oocytes; from Buller and Monaghan 1997, mean +/- SEM, n=4-6; cited from earlier work
T10 construct: expressed in transfected cells; host or cells: Xenopus oocytes injected with in vitro transcribed RNA

NR1/NR2A [16] = target: T11, NR1/NR2A (Rattus norvegicus, UniProt P35439+Q00959); test: two-microelectrode voltage clamp of recombinant NMDA receptors in Xenopus oocytes, NR1/NR2A; assay type: cell-based; conditions: NR1a co-expressed in Xenopus oocytes, mean +/- SEM
T11 construct: expressed in transfected cells; host or cells: Xenopus oocytes injected with in vitro transcribed RNA
Method: as §5

T10 sequence (Q00960 27-1482, other chains not shown): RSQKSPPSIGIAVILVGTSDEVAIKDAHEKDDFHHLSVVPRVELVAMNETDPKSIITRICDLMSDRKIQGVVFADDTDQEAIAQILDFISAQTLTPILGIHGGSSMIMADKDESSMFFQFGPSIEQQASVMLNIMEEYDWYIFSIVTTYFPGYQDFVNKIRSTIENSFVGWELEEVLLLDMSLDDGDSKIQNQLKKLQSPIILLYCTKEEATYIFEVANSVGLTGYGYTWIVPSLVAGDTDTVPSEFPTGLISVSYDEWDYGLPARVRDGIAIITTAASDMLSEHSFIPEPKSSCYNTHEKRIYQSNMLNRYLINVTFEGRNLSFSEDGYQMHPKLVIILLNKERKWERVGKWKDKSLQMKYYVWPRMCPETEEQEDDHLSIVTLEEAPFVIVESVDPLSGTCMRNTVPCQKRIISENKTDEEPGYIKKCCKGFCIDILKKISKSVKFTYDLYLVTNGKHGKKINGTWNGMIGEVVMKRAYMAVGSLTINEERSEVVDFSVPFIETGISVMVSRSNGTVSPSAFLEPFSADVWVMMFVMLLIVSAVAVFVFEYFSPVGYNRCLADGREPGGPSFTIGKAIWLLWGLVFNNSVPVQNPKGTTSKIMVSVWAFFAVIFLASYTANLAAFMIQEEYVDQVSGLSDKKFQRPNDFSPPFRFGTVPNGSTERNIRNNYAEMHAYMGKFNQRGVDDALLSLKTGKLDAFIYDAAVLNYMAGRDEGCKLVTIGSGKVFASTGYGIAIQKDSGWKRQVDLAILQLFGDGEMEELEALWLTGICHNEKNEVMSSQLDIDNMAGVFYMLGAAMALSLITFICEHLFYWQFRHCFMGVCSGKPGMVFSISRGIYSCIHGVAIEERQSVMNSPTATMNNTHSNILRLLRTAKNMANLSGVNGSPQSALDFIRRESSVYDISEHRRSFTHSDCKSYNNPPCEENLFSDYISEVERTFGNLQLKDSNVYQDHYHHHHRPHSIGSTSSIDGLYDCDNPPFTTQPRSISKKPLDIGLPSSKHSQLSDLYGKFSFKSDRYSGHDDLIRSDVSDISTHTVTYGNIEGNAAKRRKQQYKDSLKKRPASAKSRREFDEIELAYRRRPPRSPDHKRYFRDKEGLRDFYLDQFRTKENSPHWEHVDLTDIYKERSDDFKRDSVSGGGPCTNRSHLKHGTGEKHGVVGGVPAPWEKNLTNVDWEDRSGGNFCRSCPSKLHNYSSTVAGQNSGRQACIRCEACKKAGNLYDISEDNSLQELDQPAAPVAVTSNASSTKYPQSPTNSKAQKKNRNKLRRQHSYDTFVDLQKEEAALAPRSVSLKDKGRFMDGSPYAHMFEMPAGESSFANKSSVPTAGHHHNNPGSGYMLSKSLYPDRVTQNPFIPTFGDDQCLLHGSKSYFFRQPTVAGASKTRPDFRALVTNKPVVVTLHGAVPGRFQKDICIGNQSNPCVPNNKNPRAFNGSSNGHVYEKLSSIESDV
T2 sequence (Q00960 27-1482, other chains not shown): as above
T8 sequence (Q00959 23-1464, other chains not shown): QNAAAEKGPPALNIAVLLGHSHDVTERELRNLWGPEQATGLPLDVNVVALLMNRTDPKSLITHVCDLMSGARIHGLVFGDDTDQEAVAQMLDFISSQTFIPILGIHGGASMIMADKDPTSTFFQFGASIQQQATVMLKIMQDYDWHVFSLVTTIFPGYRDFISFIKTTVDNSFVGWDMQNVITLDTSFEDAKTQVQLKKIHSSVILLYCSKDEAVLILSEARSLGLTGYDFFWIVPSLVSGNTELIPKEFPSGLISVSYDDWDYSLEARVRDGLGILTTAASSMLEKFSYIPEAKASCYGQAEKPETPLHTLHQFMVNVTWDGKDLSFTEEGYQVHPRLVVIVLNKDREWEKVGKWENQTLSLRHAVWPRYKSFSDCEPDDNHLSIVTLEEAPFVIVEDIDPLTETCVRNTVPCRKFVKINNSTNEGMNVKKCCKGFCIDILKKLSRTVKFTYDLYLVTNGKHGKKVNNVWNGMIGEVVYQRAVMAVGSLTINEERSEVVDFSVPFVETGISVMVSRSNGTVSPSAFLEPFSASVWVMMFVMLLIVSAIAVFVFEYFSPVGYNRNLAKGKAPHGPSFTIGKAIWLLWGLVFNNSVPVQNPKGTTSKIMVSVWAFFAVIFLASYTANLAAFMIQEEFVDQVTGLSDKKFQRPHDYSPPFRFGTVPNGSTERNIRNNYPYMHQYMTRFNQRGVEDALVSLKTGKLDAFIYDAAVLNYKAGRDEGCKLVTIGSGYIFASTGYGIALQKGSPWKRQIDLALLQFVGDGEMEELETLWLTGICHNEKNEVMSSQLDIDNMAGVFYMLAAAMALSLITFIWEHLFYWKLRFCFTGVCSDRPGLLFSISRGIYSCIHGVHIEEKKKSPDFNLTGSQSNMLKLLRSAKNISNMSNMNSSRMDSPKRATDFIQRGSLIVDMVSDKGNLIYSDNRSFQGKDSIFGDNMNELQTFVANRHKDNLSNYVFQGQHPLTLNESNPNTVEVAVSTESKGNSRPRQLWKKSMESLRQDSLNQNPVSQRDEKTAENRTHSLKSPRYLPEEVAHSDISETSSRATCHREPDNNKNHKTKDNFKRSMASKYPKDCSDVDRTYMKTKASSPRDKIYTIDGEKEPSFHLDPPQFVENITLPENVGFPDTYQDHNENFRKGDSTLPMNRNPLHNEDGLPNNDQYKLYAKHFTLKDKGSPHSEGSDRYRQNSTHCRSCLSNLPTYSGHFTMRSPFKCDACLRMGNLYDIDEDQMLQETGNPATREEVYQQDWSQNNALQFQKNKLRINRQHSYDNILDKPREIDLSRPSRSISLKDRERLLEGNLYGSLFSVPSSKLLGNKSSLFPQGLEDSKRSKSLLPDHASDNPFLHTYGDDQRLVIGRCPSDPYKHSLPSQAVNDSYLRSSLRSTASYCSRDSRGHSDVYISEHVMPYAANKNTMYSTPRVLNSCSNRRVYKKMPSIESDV

O=C(O)[C@H]1NCCN(C(=O)c2ccc3c(ccc4ccccc43)c2)[C@H]1C(=O)O (racemic) [PPDA, (±)-cis-1-(Phenanthrene-2-ylcarbonyl)Piperazine-2,3-Dicarboxylic Acid]
Ki [1]: 310 nM
Ki [2]: 390 nM
effect on ACPD-induced depolarizations [3]: no effect
antagonism of kainate-induced depolarizations [4]: 21%
Ki (NR1/NR2B [5]): 350 nM
inhibition of [3H]CNQX binding to native AMPA receptors (native AMPA receptors): 44.6±1.3%
antagonism of NMDA-induced depolarizations (NMDA receptors; PPDA 5 μM, NMDA 50 μM, neonatal rat motoneurones): 88%
Kd (NMDA receptors; neonatal rat spinal cord, competitive antagonist, read-out: affinity (Kd), Schild analysis of NMDA-induced depolarizations): 247 nM
potency as antagonist of NMDA-induced depolarizations relative to CPP-ene (NMDA receptors; spinal cord): as potent as CPP-ene
Ki (NR1/NR2C [6]): 70 nM
Ki [7]: 540 nM
Ki (NR1/NR2D [8]): 110 nM
Ki [9]: 7200 nM
antagonism of AMPA-induced depolarizations [10]: 15%
inhibition of [3H]kainate binding [11]: 9.3±6.7%

O=C(O)C1CN(CC=CP(=O)(O)O)CCN1 (stereo not drawn) [CPP-ene, 4-(3-phosphonoprop-2-enyl)piperazine-2-carboxylic acid]
Ki (NR1/NR2D [12]): 1840 nM
Ki (NR1/NR2A [13]): 110 nM
Ki (NR1/NR2C [14]): 1460 nM
Ki (NR1/NR2B [15]): 140 nM

N[C@H](CCCP(=O)(O)O)C(=O)O [D-AP5]
Ki (NR1/NR2D [12]): 3710 nM
Ki (NR1/NR2A [13]): 280 nM
Ki (NR1/NR2C [14]): 1640 nM
Ki (NR1/NR2B [15]): 460 nM

O=C(O)C1NCCN(C(=O)c2ccc(-c3ccccc3)cc2)C1C(=O)O (stereo not drawn) [PBPD, 1-(4-phenylbenzoyl)-piperazine-2,3-dicarboxylic acid, reference compound]
Ki (NR1/NR2A [16]): 15800 nM
Ki (NR1/NR2B [5]; recombinant, NR1a co-expressed in Xenopus oocytes, mean +/- SEM, read-out: NR1/NR2B Ki): 5010 nM
Ki (NR1/NR2C [6]; recombinant, NR1a co-expressed in Xenopus oocytes, mean +/- SEM, read-out: NR1/NR2C Ki): 8980 nM
Ki (NR1/NR2D [8]; recombinant, NR1a co-expressed in Xenopus oocytes, mean +/- SEM, read-out: NR1/NR2D Ki): 4290 nM
